Test results taken from US20080194880A1, “Process For the Preparation of Polymorphs of Mesotrione” (priority 2004, published 2008).

How the values were obtained:
Assay type in all cases: physicochemical
[1] = Conversion of isolated Form 2 mesotrione to Form 1 in water in the presence of xylene at different pH; settings: xylene:mesotrione 1:5, 21 °C
Source text: This is an example of the conversion of already isolated Form 2 mesotrione to Form 1 mesotrione in the presence of solvent. A 10% solution of Form 2 in water was made at different pH values ranging from 2 to 6. If seeded, a seed concentration of 2% Form 1 relative to the Form 2 mesotrione concentration was used. A 1:5 ratio of xylene to mesotrione was used in these experiments. Actual conversion time may be less than shown.

[2] = Conversion of in-process Form 2 mesotrione slurry from the crystallizer to Form 1; settings: not seeded
Source text: This is an example of converting in process Form 2 mesotrione to Form 1 mesotrione. Form 2 material was made in the plant via a process upset. […]

[3] = Conversion of isolated Form 2 mesotrione to Form 1 in process filtrate with TEA and NaCl; settings: not seeded
[4] = Conversion of isolated Form 2 mesotrione to Form 1 in process filtrate
[5] = Polymorphic stability of pure mesotrione in aqueous suspension at pH 1 to 4
Description: 1.6 g of the re-crystallised mesotrione crystals were stirred with water (30 ml) in a reaction flask and the pH increased to 12 by the addition of sodium hydroxide. 1.5 ml of 10% hydrochloric acid was added over 15 minutes to reduce the pH of the solution to pH ranges between 1 and 4. The suspension was stirred and the polymorphic form of the crystals was determined as Form 2 by optical microscopy and FT-IR. Below pH 2.5, Form 2 transformed to Form 1 within 1 hour. At pH 3 Form 2 was stable but converted to Form 1 when seeded with Form 1 over four hours.

[6] = Stabilising Form 2 mesotrione in a 0.05% Rhodasurf DA630 solution; settings: pH 5.5, after 10 days
Description: 0.5 g of Form 2 mesotrione crystals were stirred with a 0.05% Rhodasurf DA630 (15 ml) in a reaction flask. A pH probe was placed in the system and the pH was increased to 11.5 by the addition of 0.6 ml of 10% sodium hydroxide solution. The pH of the solution was reduced to 5.5 by the addition of 0.74 g of Form 2 mesotrione. The polymorphic form of the mesotrione was monitored periodically by microscopy and FT-IR.

CS(=O)(=O)c1ccc(C(=O)C2C(=O)CCCC2=O)c([N+](=O)[O-])c1 [Form 2 mesotrione, 2-(4-methylsulphonyl-2-nitrobenzoyl)cyclohexane-1,3-dione]
Dominant Polymorph Form (IR) ([1]; Example 1A: 10% Form 2 in water, 6.3 hr, pH 2.0, seeded 2% Form 1): 1
Dominant Polymorph Form (IR) ([1]; Example 1B: 10% Form 2 in water, 6.3 hr, pH 2.9, seeded 2% Form 1): 2
Dominant Polymorph Form (IR) ([1]; Example 1C: 10% Form 2 in water, 6.3 hr, pH 4.1, seeded 2% Form 1): 2
Dominant Polymorph Form (IR) ([1]; Example 1D: 10% Form 2 in water, 6.3 hr, pH 5.9, seeded 2% Form 1): 2
Dominant Polymorph Form (IR) ([1]; Example 1E: 10% Form 2 in water, 6.3 hr, pH 2.5, seeded 2% Form 1): 1
Dominant Polymorph Form (IR) ([1]; Example 1F: 10% Form 2 in water, 6.3 hr, pH 5.1, seeded 2% Form 1): 2
Dominant Polymorph Form (IR) ([1]; Example 1G: 10% Form 2 in water, 23.3 hr, pH 2.0, seeded 2% Form 1): 1
Dominant Polymorph Form (IR) ([1]; Example 1H: 10% Form 2 in water, 23.3 hr, pH 2.9, seeded 2% Form 1): 2
Dominant Polymorph Form (IR) ([1]; Example 1I: 10% Form 2 in water, 23.5 hr, pH 5.9, seeded 2% Form 1): 2
Dominant Polymorph Form (IR) ([1]; Example 1J: 10% Form 2 in water, 23.5 hr, pH 2.5, seeded 2% Form 1): 1
Dominant Polymorph Form (IR) ([1]; Example 1K: 10% Form 2 in water, 23.5 hr, pH 2.0, not seeded): 1
Dominant Polymorph Form (IR) ([1]; Example 1L: 10% Form 2 in water, 22.0 hr, pH 2.0, not seeded): 1
Dominant Polymorph Form (IR) ([1]; Example 1M: 10% Form 2 in water, 22.0 hr, pH 4.0, not seeded): 2
Hours to convert ([2]; Example 2A: Form 2 slurry, 20° C., pH 3.2, not agitated, did not convert after 4-5 days): Did not
Hours to convert ([2]; Example 2B: Form 2 slurry, 40° C., pH 2.0, agitated): 4 h
Hours to convert ([2]; Example 2C: Form 2 slurry, 50° C., pH 2.0, agitated): 1.4 h
Hours to convert ([2]; Example 2D: Form 2 slurry, 50° C., pH 2.9, agitated): 1.8 h
Hours to convert ([2]; Example 2E: Form 2 slurry, 40° C., pH 2.0, agitated): 4 h
Hours to convert ([3]; Example 3A: process filtrate, temp 40, pH 1.8, no meso:TEA or meso:NaCl ratio printed, agitated): 17 h
Hours to convert ([3]; Example 3B: process filtrate, temp 50, pH 2.0, meso:TEA 1:1.3, meso:NaCl 2:1, agitated): 1 h
Hours to convert ([3]; Example 3C: process filtrate, temp 50, pH 2.0, meso:TEA 1:1.3, meso:NaCl 2:1, agitated): 5 h
Hours to convert ([3]; Example 3D: process filtrate, temp 50, pH 1.8, meso:TEA 1:1.3, meso:NaCl 2:1, agitated): 4 h
Hours to convert ([4]; Example 4A: process filtrate, temp 22, pH 3.6, agitated, seeded, did not convert after 52 hrs): Did not
Hours to convert ([4]; Example 4B: process filtrate, temp 22, pH 3.6, agitated, seeded, did not convert after 48 hrs): Did not
Hours to convert ([4]; Example 4C: process filtrate, temp 30, pH 3.6, agitated, seeded, did not convert after 18 hrs): Did not
Hours to convert ([4]; Example 4D: process filtrate, temp 50, pH 2.0, agitated, not seeded): 2 h
Hours to convert ([4]; Example 4E: process filtrate, temp 50, pH 1.8, agitated, not seeded): 2 h
Hours to convert ([4]; Example 4F: process filtrate, temp 50, pH 1.8, not agitated, not seeded): 2 h
Transformation of Form 2 to Form 1 ([5]; aqueous suspension, pH between 3.5 and 4, heated to 40° C., 1% by weight of Form 1 seeds added): would not transform to Form 1
Polymorphic form of the suspension ([5]; pH between 3.5 and 4, determined periodically over the next 3 weeks): always found to be Form 2
Transformation of Form 2 to Form 1 ([5]; pH between 3.5 and 4, samples taken several months later): had not transformed to Form 1
Time for Form 2 to transform to Form 1 ([5]; stirred aqueous suspension, below pH 2.5): ≤ 1 h
Polymorphic stability of Form 2 ([5]; stirred aqueous suspension, pH 3, not seeded): stable
Time for Form 2 to convert to Form 1 ([5]; stirred aqueous suspension, pH 3, seeded with Form 1): four
Polymorphic form (microscopy and FT-IR) [6]: still predominately Form 2
